Laboratory results published in patent publication US20070117743A1, “New antitumoral compounds” (priority 2003, published 2007).
Read-outs that look alike come from different tables or passages of the source. Where a SMILES comes first, the peptide text is derived from it. Bridges are numbered along the chain shown (N, C = ends). [ ]: non-standard residue; d: D form. The star is where a group is joined. d(aIle) = CC[C@H](C)[C@@H](N)C(=O)O; d(aThr) = C[C@@H](O)[C@@H](N)C(=O)O; Hexanoyl(5-Me) = CC(C)CCCC(=O)*; Orn = NCCC[C@H](N)C(=O)O; Dhb = C/C=C(\N)C(=O)O

Assays:
Type in all cases: cell-based, human
A-549 = test: SRB colorimetric assay of cell growth and viability, A-549; conditions: 48 hours exposure, SRB; for GI50: read-out: GI50 A-549; for CC50: read-out: LC50 A-549
SK-MEL-28 = test: SRB colorimetric assay of cell growth and viability, SK-MEL-28; conditions: 48 hours exposure; for CC50: read-out: LC50 MEL-28
HT-29 = test: SRB colorimetric assay of cell growth and viability, HT-29; conditions: 48 hours exposure, SRB; for GI50: read-out: GI50 HT-29; for CC50: read-out: LC50 HT-29
LoVo = test: SRB colorimetric assay of cell growth and viability, LoVo; conditions: 48 hours exposure, SRB; for CC50: read-out: LC50 LOVO
LoVo-Dox = test: SRB colorimetric assay of cell growth and viability, LoVo-Dox; conditions: 48 hours exposure, SRB; for CC50: read-out: LC50 LOVO-DOX
Procedure, shortened: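 First, 5×10^3 cells per well attach for 18 hours in RPMI 1640 with 10% FBS at 37° C and 5% CO2. Next, samples spanning 10 to 10^−8 μg/mL are added for 48 hours. Finally, cells are fixed with TCA, stained with SRB for 10 minutes and read at 490 nm.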

DU-145 = test: SRB colorimetric assay of cell growth and viability, DU-145; conditions: 48 hours exposure
LNCaP = test: SRB colorimetric assay of cell growth and viability, LNCaP; conditions: 48 hours exposure; for GI50: read-out: GI50 LN-caP; for CC50: read-out: LC50 LN-caP
SK-BR-3 = test: SRB colorimetric assay of cell growth and viability, SK-BR-3; conditions: 48 hours exposure
IGROV-1 = test: SRB colorimetric assay of cell growth and viability, IGROV-1; conditions: 48 hours exposure
IGROV-ET = test: SRB colorimetric assay of cell growth and viability, IGROV-ET; conditions: 48 hours exposure; for CC50: read-out: LC50 IGROV-ET
HeLa = test: SRB colorimetric assay of cell growth and viability, HeLa; conditions: 48 hours exposure, SRB; for CC50: read-out: LC50 HELA
HeLa-APL = test: SRB colorimetric assay of cell growth and viability, HeLa-APL; conditions: 48 hours exposure, SRB; for CC50: read-out: LC50 HELA-APL
K-562 = test: SRB colorimetric assay of cell growth and viability, K-562; conditions: 48 hours exposure, SRB; for CC50: read-out: LC50 K-562
PANC-1 = test: SRB colorimetric assay of cell growth and viability, PANC-1; conditions: 48 hours exposure, SRB; for CC50: read-out: LC50 PANC-1

C/C=C1\NC(=O)[C@H](Cc2ccccc2)NC(=O)[C@@H](C(C)C)NC(=O)[C@@H]([C@@H](C)CC)NC(=O)[C@H](NC(=O)[C@H](NC(=O)[C@H](CCCN)NC(=O)[C@H]2CCCN2C(=O)[C@H](NC(=O)[C@@H](NC(=O)[C@H](CCC(N)=O)NC(=O)CCCC(C)C)C(C)C)C(C)C)[C@@H](C)CC)[C@@H](C)OC(=O)[C@H](C(C)C)NC1=O [Compound 58, [Gln^12, noD-Val^13]-KF] ({Hexanoyl(5-Me)}-QV[dV][dP][Orn][d(aIle)][d(aThr)][d(aIle)][dV]F[Dhb]V; ester 7-C)
TGI A-549 (A-549): 7.11E−06 Molar
GI50 (A-549): ≥ 7110 nM
CC50 (A-549): ≥ 7110 nM
GI50 (SK-MEL-28): ≥ 7110 nM
TGI MEL-28 (SK-MEL-28): 7.11E−06 Molar
CC50 (SK-MEL-28): ≥ 7110 nM
TGI HT-29 (HT-29): 7.11E−06 Molar
GI50 (HT-29): ≥ 7110 nM
CC50 (HT-29): ≥ 7110 nM
GI50 (LoVo): ≥ 7110 nM
TGI LOVO (LoVo): 7.11E−06 Molar
CC50 (LoVo): ≥ 7110 nM
GI50 (LoVo-Dox): ≥ 7110 nM
TGI LOVO-DOX (LoVo-Dox): 7.11E−06 Molar
CC50 (LoVo-Dox): ≥ 7110 nM
GI50 (DU-145): ≥ 7110 nM
LC50 (concentration causing 50% net cell kill) (DU-145): ≥ 7110 nM
TGI DU-145 (DU-145): 7.11E−06 Molar
TGI LN-caP (LNCaP): 7.11E−06 Molar
GI50 (LNCaP): ≥ 7110 nM
CC50 (LNCaP): ≥ 7110 nM
GI50 (SK-BR-3): ≥ 7110 nM
LC50 (SK-BR-3): ≥ 7110 nM
TGI SK-BR-3 (SK-BR-3): 7.11E−06 Molar
GI50 (IGROV-1): ≥ 7110 nM
LC50 (concentration causing 50% net cell killing) (IGROV-1): ≥ 7110 nM
TGI IGROV (IGROV-1): 7.11E−06 Molar
GI50 (IGROV-ET): ≥ 7110 nM
TGI IGROV-ET (IGROV-ET): 7.11E−06 Molar
CC50 (IGROV-ET): ≥ 7110 nM
GI50 (HeLa): ≥ 7110 nM
TGI HELA (HeLa): 7.11E−06 Molar
CC50 (HeLa): ≥ 7110 nM
GI50 (HeLa-APL): ≥ 7110 nM
TGI HELA-APL (HeLa-APL): 7.11E−06 Molar
CC50 (HeLa-APL): ≥ 7110 nM
GI50 (K-562): ≥ 7110 nM
TGI K-562 (K-562): 7.11E−06 Molar
CC50 (K-562): ≥ 7110 nM
GI50 (PANC-1): ≥ 7110 nM
TGI PANC-1 (PANC-1): 7.11E−06 Molar
CC50 (PANC-1): ≥ 7110 nM

C/C=C1\NC(=O)[C@H](Cc2ccccc2)NC(=O)[C@@H](C(C)C)NC(=O)[C@@H]([C@@H](C)CC)NC(=O)[C@H](NC(=O)[C@H](NC(=O)[C@H](CCCN)NC(=O)[C@H]2CCCN2C(=O)[C@H](NC(=O)[C@@H](NC(=O)[C@@H](NC(=O)[C@H](NC(=O)CC[C@@H](C)CC)C(C)C)[C@@H](C)OC(=O)C(F)(F)F)C(C)C)C(C)C)[C@@H](C)CC)[C@@H](C)OC(=O)[C@H](C(C)C)NC1=O [Compound 94, [Thr(OTfa)^12, 4(S)MeHex^14]-Kahalalide F]
TGI A-549 (A-549): 2.28E−06 Molar
GI50 (A-549): 1120 nM
CC50 (A-549): 4660 nM
GI50 (SK-MEL-28; SRB): 743 nM
TGI MEL-28 (SK-MEL-28; SRB): 1.50E−06 Molar
CC50 (SK-MEL-28; SRB): 3010 nM
TGI HT-29 (HT-29): 3.43E−07 Molar
GI50 (HT-29): 163 nM
CC50 (HT-29): 1140 nM
GI50 (LoVo): 168 nM
TGI LOVO (LoVo): 3.26E−07 Molar
CC50 (LoVo): 632 nM
GI50 (LoVo-Dox): 162 nM
TGI LOVO-DOX (LoVo-Dox): 3.55E−07 Molar
CC50 (LoVo-Dox): 1320 nM
GI50 (DU-145; SRB): 718 nM
LC50 (concentration causing 50% net cell kill) (DU-145; SRB): 3180 nM
TGI DU-145 (DU-145; SRB): 1.51E−06 Molar
TGI LN-caP (LNCaP; SRB): 4.92E−06 Molar
GI50 (LNCaP; SRB): 1650 nM
CC50 (LNCaP; SRB): 6350 nM
GI50 (SK-BR-3; SRB): 226 nM
LC50 (SK-BR-3; SRB): 625 nM
TGI SK-BR-3 (SK-BR-3; SRB): 3.75E−07 Molar
GI50 (IGROV-1; SRB): 313 nM
LC50 (concentration causing 50% net cell killing) (IGROV-1; SRB): 3050 nM
TGI IGROV (IGROV-1; SRB): 6.11E−07 Molar
GI50 (IGROV-ET; SRB): 208 nM
TGI IGROV-ET (IGROV-ET; SRB): 4.00E−07 Molar
CC50 (IGROV-ET; SRB): 1580 nM
GI50 (HeLa): 413 nM
TGI HELA (HeLa): 1.16E−06 Molar
CC50 (HeLa): 3020 nM
GI50 (HeLa-APL): 693 nM
TGI HELA-APL (HeLa-APL): 1.65E−06 Molar
CC50 (HeLa-APL): 3920 nM
GI50 (K-562): 1840 nM
TGI K-562 (K-562): 3.75E−06 Molar
CC50 (K-562): 6350 nM
GI50 (PANC-1): 2860 nM
TGI PANC-1 (PANC-1): 6.35E−06 Molar
CC50 (PANC-1): 6350 nM

C/C=C1\NC(=O)[C@H](Cc2ccccc2)NC(=O)[C@@H](C(C)C)NC(=O)[C@@H]([C@@H](C)CC)NC(=O)[C@H](NC(=O)[C@H](NC(=O)[C@H](CCCNC(=O)C(F)(F)F)NC(=O)[C@H]2CCCN2C(=O)[C@H](NC(=O)[C@@H](NC(=O)[C@@H](NC(=O)[C@H](NC(=O)CC[C@@H](C)CC)C(C)C)[C@@H](C)OC(=O)C(F)(F)F)C(C)C)C(C)C)[C@@H](C)CC)[C@@H](C)OC(=O)[C@H](C(C)C)NC1=O [Compound 95, [Orn(N^δTfa)^8,Thr(OTfa)^12, 4(S)MeHex^14]-Kahalalide F]
TGI A-549 (A-549): 2.29E−06 Molar
GI50 (A-549): 1150 nM
CC50 (A-549): 4550 nM
GI50 (SK-MEL-28; SRB): 1030 nM
TGI MEL-28 (SK-MEL-28; SRB): 1.84E−06 Molar
CC50 (SK-MEL-28; SRB): 3280 nM
TGI HT-29 (HT-29): 1.93E−07 Molar
GI50 (HT-29): 86.2 nM
CC50 (HT-29): 432 nM
GI50 (LoVo): 125 nM
TGI LOVO (LoVo): 2.34E−07 Molar
CC50 (LoVo): 437 nM
GI50 (LoVo-Dox): 124 nM
TGI LOVO-DOX (LoVo-Dox): 2.41E−07 Molar
CC50 (LoVo-Dox): 471 nM
GI50 (DU-145; SRB): 892 nM
LC50 (concentration causing 50% net cell kill) (DU-145; SRB): 3360 nM
TGI DU-145 (DU-145; SRB): 1.73E−06 Molar
TGI LN-caP (LNCaP; SRB): 5.99E−06 Molar
GI50 (LNCaP; SRB): 1700 nM
CC50 (LNCaP; SRB): 5990 nM
GI50 (SK-BR-3; SRB): 73.1 nM
LC50 (SK-BR-3; SRB): 520 nM
TGI SK-BR-3 (SK-BR-3; SRB): 1.95E−07 Molar
GI50 (IGROV-1; SRB): 178 nM
LC50 (concentration causing 50% net cell killing) (IGROV-1; SRB): 550 nM
TGI IGROV (IGROV-1; SRB): 3.13E−07 Molar
GI50 (IGROV-ET; SRB): 219 nM
TGI IGROV-ET (IGROV-ET; SRB): 3.77E−07 Molar
CC50 (IGROV-ET; SRB): 916 nM
GI50 (HeLa): 162 nM
TGI HELA (HeLa): 3.06E−07 Molar
CC50 (HeLa): 579 nM
GI50 (HeLa-APL): 617 nM
TGI HELA-APL (HeLa-APL): 1.52E−06 Molar
CC50 (HeLa-APL): 3740 nM
GI50 (K-562): 3570 nM
TGI K-562 (K-562): 5.99E−06 Molar
CC50 (K-562): 5990 nM
GI50 (PANC-1): 3580 nM
TGI PANC-1 (PANC-1): 5.99E−06 Molar
CC50 (PANC-1): 5990 nM
